Data set [1] concerns the target T1, nNOS (Rattus norvegicus, UniProt P29476). Also on record: made in house. The following applies: value used in the Cheng-Prusoff equation; no reference given; read-out: Km of NADPH for nNOS; cited from earlier work.
The subject of data set [2] is HUVEC cells. To be noted: cited from earlier work.
Details of data set [3]: method as in earlier work. To be noted: cited from earlier work.
The subject of another data set is NOS. Also on record: method as in PMID 19222033, PMID 17263536. To be noted: one and two-photon excitation; cited from earlier work.
In data set [4] the test system is HUVEC cells. Also noted: key to NO Formed upon Laser Excitation: +: NO formed under laser excitation; −: a lack of NO formed under laser excitation. To be noted: cited from earlier work; for NO produced in HUVEC cells upon light activation (in words): ref 15 (NT1), ref 19 (NT2_5), 19 (NT2_7).
Data set [5] has as its target T1, nNOS. Kind of data set: Flavin reduction of nNOS upon light irradiation at 365 nm (absorption changes). Also noted: made in house; calmodulin purchased from Sigma. The format is biochemical. To be noted: for FAD/flavin reduction upon light excitation (in words): irradiation at 365 nm. The protocol:
Light irradiation of the NT -nNOS complexes in the presence of NOHA, H4B, and Ca^2+/calmodulin was performed by a continuous irradiation with a Hg/Xe lamp (Hamamatsu, LC6 Lightningcure, 200 W) equipped with narrow-band interference filter to select 365 nm (Semrock FF01-370/36: center wavelength 370 nm, nominal bandwidth […]) during one minute. The absorption changes before and after irradiation were measured on a Cary5000 spectrophotometer from Agilent Technologies (Les Ulys, France).
100 mM NOHA, 100 mM Ca^2+, 1 µg recombinant calmodulin, 20 mM Tris Buffer at pH = 7.8, 100 mM NaCl; representative data out of 2 experiments.

Data set [6] in a line: Self-association of free NTs in buffer (fluorescence vs concentration, fluorescence anisotropy). The format is physicochemical. The method, then:
(§1) The apparent binding affinities of the NTs to the neuronal (nNOS) and endothelial (eNOS) isoforms of nitric oxide synthase (NOS) were assessed by changes in NT intrinsic fluorescence using two types of titrations. In the first method, aliquots (1 μL) were added to 100 μL buffer containing NOS protein (5 μM), and fluorescence emission spectra were recorded from 430–700 nm (λexcitation = 420 nm; slit widths = 5 nm) on a Shimadzu RF-5301PC fluorimeter. Spectra of intrinsic protein fluorescence and unbound NT were subtracted from protein/NT spectra and the fluorescence at 460 nm was plotted against NT concentration. In the second method, we measured fluorescence spectra at a fixed concentration of the NT (1–2µM) with a Cary Eclipse spectrophotometer set at T = 20 °C, with excitation wavelength at 390 nm and emission wavelengths in the range 410–610 nm; the PM was usually set at 600 V with slits of 10 nm at both excitation and emission. […] The steady-state fluorescence anisotropy was calculated using: r = (IVV − G × IVH)/(IVV + 2G × IVH) where IVV and IVH correspond to vertical and horizontal components, respectively, when the sample is excited with vertically polarized light, G is the G-factor accounting for the difference in the monochromator transmission between // and ⊥ polarized components (G = IHV/IHH). […]
On the technique in general: In fluorescence polarisation assays a small probe gives low polarisation when free and higher when bound to something large.

In data set [7] the target is T1, nNOS. Kind of data set: Fluorescence titration of NT binding to recombinant nNOS. The following applies: [nNOS] = 0–10 µM, 10 mM Tris pH 7.2, 100 mM NaCl, read-out: Apparent Kd nNOS. Also on record: made in house. The protocol:
as §1

For data set [8], the target named is T1, nNOS. Also noted: made in house; method as in PMID 30986510. To be noted: a: protein 5–10 µM, [NTs] = 0–50 µM; read-out: Apparent Kd nNOS; cited from earlier work.

Entries after “also recorded” stand apart in the source; their conditions may differ. Read-outs that look alike come from different tables or passages of the source.

Consider `NC(=O)C1=CN([C@@H]2O[C@H](COP(=O)(O)OP(=O)(O)OC[C@H]3O[C@@H](n4cnc5c(N)ncnc54)[C@H](OP(=O)(O)O)[C@@H]3O)[C@@H](O)[C@H]2O)C=CC1` [NADPH], for which the Michaelis constant (Km) at nNOS [1] is 5.5 µM.
For the molecule `CCN(CCNC(=O)[C@H]1O[C@@H](n2cnc3c(N)ncnc32)[C@H](OP(=O)(O)O)[C@@H]1O)c1ccc(/C=C/C=C/c2ccc(N)cc2)cc1` [NT1], in the data set with HUVEC cells [2], the “Not toxic to HUVEC up to concentration” value is listed as “up to 20 µM”. Besides, in data set [3], the “Self-association (in words)” value was “did not self-associate”. Moreover, in the data set with NOS, the “Time of initiation and synchronization of NOS catalysis after photoexcitation” value is given as 15–20 ps. For the same molecule, in the data set on HUVEC cells [4], the “NO Formed upon Laser Excitation” value is listed as “+” and the “NO produced in HUVEC cells upon light activation (in words)” value (from here on “NO produced”) is recorded as “produced NO upon light activation”. The “FAD/flavin reduction upon light excitation (in words)” value at nNOS [5] is reported as “reduced FAD upon light excitation”.
For the molecule `CN(Cc1cn(C[C@H]2O[C@@H](n3cnc4c(N)ncnc43)[C@H](OCC(=O)O)[C@@H]2OCC(=O)O)nn1)c1ccc(/C=C/C=C/c2ccc(N)cc2)cc1` [NT2_3], the “NO Formed upon Laser Excitation” value in the data set with HUVEC cells [4] is given as “−”. The “FAD/flavin reduction upon light excitation (in words)” value at nNOS [5] is “could not reduce FAD”.
For `CN(Cc1cn(C[C@H]2O[C@@H](n3cnc4c(N)ncnc43)[C@H](O)[C@@H]2OCC(=O)O)nn1)c1ccc(/C=C/C=C/c2ccc(N)cc2)cc1` [NT2_5], the “Concentration above which fluorescence of free NT deviates from linearity (self-association)” value in data set [6] (free NT in buffer, fluorescence at 460 nm, order NT3_3 > NT3_5 > NT2_5 > NT3_7) is reported as “above 5 µM”. For the same molecule, the “Cytotoxicity in HUVEC cells above concentration” value with HUVEC cells [2] (second generation of NT) is “above 5 µM”. In the data set with HUVEC cells [4], the “NO Formed upon Laser Excitation” value is recorded as “+”. Besides, in the data set on HUVEC cells [4], the “NO produced” value is reported as “produced NO upon light activation”. For the same molecule, the Kd on nNOS [7] (b: [NTs] = 1 or 2 µM) was determined as 1300 ± 200 nM; at nNOS [7] (c: [NTs] = 2 µM, 100 mM NOHA), 4000 ± 700 nM. Also, the “FAD/flavin reduction upon light excitation (in words)” value on nNOS [5] is listed as “reduced FAD upon light excitation”. Moreover, on nNOS [5] (no light), the “Ground state (dark) FAD reduction, no light (in words)” value is given as “some ground state reduction; also recorded: can reduce FAD in the ground state”.
On to `CN(Cc1cn(C[C@H]2O[C@@H](n3cnc4c(N)ncnc43)[C@H](OCC(=O)O)[C@@H]2O)nn1)c1ccc(/C=C/C=C/c2ccc(N)cc2)cc1` [NT2_7], for which, on nNOS [8], the Kd was 30 ± 4 µM. Also, in the data set on HUVEC cells [4], the “NO Formed upon Laser Excitation” value is reported as “−” and the “NO produced” value is recorded as “unable to generate NO”.
Consider `O=C1OC2(c3ccc(O)cc3Oc3cc(O)ccc32)c2ccccc21` [fluorescein, reference compound], for which the “Steady-state fluorescence anisotropy r” value in [6] (nNOS-free, NT3_3 at 5 µM, fluorescein as freely rotating monomer) is given as 0.005.

Broadly, the Km is the concentration of substrate that gives half-maximal velocity.

Source of the values: paper PMC7070953, “Design of Light-Sensitive Triggers for Endothelial NO-Synthase Activation” (Antioxidants, 2020).
